# Assay results published in patent US20090004112A1, “METHODS FOR THE TREATMENT OF NEURODEGENERATIVE DISEASES USING NMDA RECEPTOR GLYCINE SITE ANTAGONISTS” (THE TRUSTEES OF COLUMBIA UNIVERSITY IN THE CITY OF NEW YORK, priority 2006, published 2009).
# What was measured:
# [1] = test system: wild-type LRRK2 overexpressing cells; assay: Process length in wild-type LRRK2 overexpressing primary cortical neurons; assay type: cell-based, rat; conditions: 10 μM
# Source text: FIGS. 8A-8B. […] N=25 for each group. […] N=10 for each group.
# Cell Culture and Transfection.
# [2] = test system: PD-associated LRRK2 mutant; assay: Formation of LC3-GFP labeled aggregates in neurites / PD-associated LRRK2 pathology; assay type: cell-based
# Source text: A method is disclosed for treating a neurodegenerative disease, for example, Parkinson's Disease associated with a mutant of leucine-rich repeat kinase-2 (LRRK2), with NMDA antagonists. The methods include assessing accumulation of LC3-GFP labeled aggregates. The methods may be carried out on primary neurons in vitro in a cell culture, or in vivo in an animal. In one embodiment, the cell is a post-mitotic neuron. In another embodiment, the post-mitotic neuron is a cortical neuron, a dopamine neuron, or a sympathetic neuron.
# Mutations in LRRK2 underlie an autosomal dominant, inherited form of Parkinson's disease (PD) that mimics all of the clinical features of the common sporadic form of PD. The LRRK2 protein includes putative GTPase, protein kinase, WD40 repeat, and leucine rich repeat (LRR) domains of unknown function.
Compound,process length in wild-type LRRK2 overexpressing cells [1],PD-associated LRRK2 pathology [2],formation of LC3-GFP labeled aggregates in neurites [2]
NC1(C(=O)O)CCC1 [1-aminocyclobutane carboxylic acid],do not alter process length,–,–
"O=c1c(-c2cccc(Oc3ccccc3)c2)c(O)[nH]c2cc(Cl)ccc12 [L-701,324, 7-chloro-2-hydroxy-3-[3-(phenoxy)phenyl]-1H-quinolin-4-one]",–,ameliorated,ameliorated
O=C1CC(c2ccccc2)Oc2ccccc21 (stereo not shown) [flavanone],do not alter process length,–,–
N[C@@H](CCC(=O)N[C@@H](CS)C(=O)NCC(=O)O)C(=O)O [glutathione],do not alter process length,–,–
Oc1ccc(O)cc1 [hydroquinone],do not alter process length,–,–
Nc1ccccc1C(=O)CC(N)C(=O)O (stereo not shown) [kynurenine],do not alter process length,–,–
